Measured values published in patent US6414157B1, “3-Substituted tetrahydropyridopyrimidinone derivatives, method for producing the same, and their use” (Abbott Laboratories, priority 1997, dated 2002).
Structures can show the parent of a compound that is named as a salt.

Key:
[1] = tested on: serotonin release in the cortex; details: after systemic administration; cited from earlier work
[2] = tested on: serotonin release in the dorsal raphe nucleus; details: dorsal raphe nucleus of the rat; together with paroxetine; cited from earlier work

| melting point [°C] | Compound | serotonin release in the cortex [1] | effect of paroxetine on serotonin release [2] |
| --- | --- | --- | --- |
| 181 | COc1ccccc1N1CCN(CCn2cnc3c(c2=O)CCN(Cc2ccccc2)C3)CC1 (as salt: hydrochloride) |  |  |
| 198 | COc1ccccc1N1CCN(CCCn2cnc3c(c2=O)CN(Cc2ccccc2)CC3)CC1 (as salt: hydrochloride) |  |  |
|  | COc1ccc(NC(=O)c2ccc(-c3ccc(-c4noc(C)n4)cc3C)cc2)cc1N1CCN(C)CC1 [GR 127 935] | reduces serotonin release in the cortex | potentiated |
